# How the values were obtained:
# Test in all cases: KINOMEscan kinase binding assay (Eurofins/DiscoveRx), % Ctrl
# Conditions in all cases: 1 μM
# kinases [1] = molecular target: T1, kinases (Homo sapiens, UniProt P36888)
# T1 construct: purchased Eurofins/DiscoveRx; host or cells: E. coli BL21-derived host (T7 phage display) for most kinases; HEK-293 for the rest
# T1 sequence (P36888 27-993): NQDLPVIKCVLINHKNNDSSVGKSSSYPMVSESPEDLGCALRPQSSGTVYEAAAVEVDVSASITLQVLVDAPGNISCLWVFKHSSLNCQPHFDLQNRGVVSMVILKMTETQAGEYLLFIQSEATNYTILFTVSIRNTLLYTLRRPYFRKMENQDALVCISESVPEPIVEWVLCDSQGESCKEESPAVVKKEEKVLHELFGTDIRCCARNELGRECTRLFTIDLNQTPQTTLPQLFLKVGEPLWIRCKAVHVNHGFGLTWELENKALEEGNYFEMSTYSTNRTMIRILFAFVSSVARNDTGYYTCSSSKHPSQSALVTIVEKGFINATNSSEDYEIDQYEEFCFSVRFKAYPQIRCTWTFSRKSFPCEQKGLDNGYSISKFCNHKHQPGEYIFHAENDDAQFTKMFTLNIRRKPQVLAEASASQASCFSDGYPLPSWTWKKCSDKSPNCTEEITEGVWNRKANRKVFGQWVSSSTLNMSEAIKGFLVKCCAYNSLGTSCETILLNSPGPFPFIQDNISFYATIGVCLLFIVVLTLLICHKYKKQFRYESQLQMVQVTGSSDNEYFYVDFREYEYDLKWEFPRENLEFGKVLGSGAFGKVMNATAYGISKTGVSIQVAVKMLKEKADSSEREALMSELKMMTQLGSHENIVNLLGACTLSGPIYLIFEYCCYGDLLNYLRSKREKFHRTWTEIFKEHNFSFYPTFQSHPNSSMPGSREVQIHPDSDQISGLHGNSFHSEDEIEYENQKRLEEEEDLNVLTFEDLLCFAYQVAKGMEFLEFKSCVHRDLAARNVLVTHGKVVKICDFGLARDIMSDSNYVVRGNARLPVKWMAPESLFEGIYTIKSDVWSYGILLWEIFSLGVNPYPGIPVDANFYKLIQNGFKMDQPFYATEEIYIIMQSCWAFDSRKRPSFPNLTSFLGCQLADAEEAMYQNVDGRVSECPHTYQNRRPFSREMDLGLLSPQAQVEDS
# How it was run: (§1)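 Competition binding: DNA- or phage-tagged kinases (T7 phage in E. coli BL21, or HEK-293-expressed) with immobilized biotinylated ligand beads and test compound, 1 h at room temperature. Bead-bound kinase eluted and quantified by qPCR; % Ctrl = (compound − positive control)/(negative control − positive control) ×100 at a single compound concentration.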
# kinases [2] = molecular target: T2, kinases (Homo sapiens, UniProt P07949)
# T2 construct: purchased Eurofins/DiscoveRx; host or cells: E. coli BL21-derived host (T7 phage display) for most kinases; HEK-293 for the rest
# How it was run: as §1
# kinases [3] = molecular target: T3, kinases (Homo sapiens, UniProt P00533, DEL752-759)
# T3 construct: purchased Eurofins/DiscoveRx; host or cells: E. coli BL21-derived host (T7 phage display) for most kinases; HEK-293 for the rest
# How it was run: as §1
# kinases [4] = molecular target: T4, kinases (Homo sapiens, UniProt P00533, G719C)
# T4 construct: purchased Eurofins/DiscoveRx; host or cells: E. coli BL21-derived host (T7 phage display) for most kinases; HEK-293 for the rest
# How it was run: as §1
# kinases [5] = molecular target: T5, kinases (Homo sapiens, UniProt P07949, V804L)
# T5 construct: purchased Eurofins/DiscoveRx; host or cells: E. coli BL21-derived host (T7 phage display) for most kinases; HEK-293 for the rest
# How it was run: as §1
# kinases [6] = molecular target: T6, kinases (Homo sapiens, UniProt P00519, M351T)
# T6 construct: purchased Eurofins/DiscoveRx; host or cells: E. coli BL21-derived host (T7 phage display) for most kinases; HEK-293 for the rest
# How it was run: as §1
# kinases [7] = molecular target: T7, kinases (Homo sapiens, UniProt P00519, H396P)
# T7 construct: purchased Eurofins/DiscoveRx; host or cells: E. coli BL21-derived host (T7 phage display) for most kinases; HEK-293 for the rest
# How it was run: as §1
# kinases [8] = molecular target: T8, kinases (Homo sapiens, UniProt P00519)
# T8 construct: purchased Eurofins/DiscoveRx; host or cells: E. coli BL21-derived host (T7 phage display) for most kinases; HEK-293 for the rest
# How it was run: as §1
# kinases [9] = molecular target: T9, kinases (Homo sapiens, UniProt P00533, T790M)
# T9 construct: purchased Eurofins/DiscoveRx; host or cells: E. coli BL21-derived host (T7 phage display) for most kinases; HEK-293 for the rest
# How it was run: as §1
# kinases [10] = molecular target: T10, kinases (Homo sapiens, UniProt P10721, L576P)
# T10 construct: purchased Eurofins/DiscoveRx; host or cells: E. coli BL21-derived host (T7 phage display) for most kinases; HEK-293 for the rest
# How it was run: as §1
# kinases [11] = molecular target: T11, kinases (Homo sapiens, UniProt P10721, V559D/V654A)
# T11 construct: purchased Eurofins/DiscoveRx; host or cells: E. coli BL21-derived host (T7 phage display) for most kinases; HEK-293 for the rest
# How it was run: as §1
# kinases [12] = molecular target: T12, kinases (Homo sapiens, UniProt P09619)
# T12 construct: purchased Eurofins/DiscoveRx; host or cells: E. coli BL21-derived host (T7 phage display) for most kinases; HEK-293 for the rest
# How it was run: as §1
# kinases [13] = molecular target: T13, kinases (Homo sapiens, UniProt P07949, M918T)
# T13 construct: purchased Eurofins/DiscoveRx; host or cells: E. coli BL21-derived host (T7 phage display) for most kinases; HEK-293 for the rest
# How it was run: as §1
# kinases [14] = molecular target: T14, kinases (Homo sapiens, UniProt P00519, Y253F)
# T14 construct: purchased Eurofins/DiscoveRx; host or cells: E. coli BL21-derived host (T7 phage display) for most kinases; HEK-293 for the rest
# How it was run: as §1
# T13 sequence (P07949 29-1114 M918T): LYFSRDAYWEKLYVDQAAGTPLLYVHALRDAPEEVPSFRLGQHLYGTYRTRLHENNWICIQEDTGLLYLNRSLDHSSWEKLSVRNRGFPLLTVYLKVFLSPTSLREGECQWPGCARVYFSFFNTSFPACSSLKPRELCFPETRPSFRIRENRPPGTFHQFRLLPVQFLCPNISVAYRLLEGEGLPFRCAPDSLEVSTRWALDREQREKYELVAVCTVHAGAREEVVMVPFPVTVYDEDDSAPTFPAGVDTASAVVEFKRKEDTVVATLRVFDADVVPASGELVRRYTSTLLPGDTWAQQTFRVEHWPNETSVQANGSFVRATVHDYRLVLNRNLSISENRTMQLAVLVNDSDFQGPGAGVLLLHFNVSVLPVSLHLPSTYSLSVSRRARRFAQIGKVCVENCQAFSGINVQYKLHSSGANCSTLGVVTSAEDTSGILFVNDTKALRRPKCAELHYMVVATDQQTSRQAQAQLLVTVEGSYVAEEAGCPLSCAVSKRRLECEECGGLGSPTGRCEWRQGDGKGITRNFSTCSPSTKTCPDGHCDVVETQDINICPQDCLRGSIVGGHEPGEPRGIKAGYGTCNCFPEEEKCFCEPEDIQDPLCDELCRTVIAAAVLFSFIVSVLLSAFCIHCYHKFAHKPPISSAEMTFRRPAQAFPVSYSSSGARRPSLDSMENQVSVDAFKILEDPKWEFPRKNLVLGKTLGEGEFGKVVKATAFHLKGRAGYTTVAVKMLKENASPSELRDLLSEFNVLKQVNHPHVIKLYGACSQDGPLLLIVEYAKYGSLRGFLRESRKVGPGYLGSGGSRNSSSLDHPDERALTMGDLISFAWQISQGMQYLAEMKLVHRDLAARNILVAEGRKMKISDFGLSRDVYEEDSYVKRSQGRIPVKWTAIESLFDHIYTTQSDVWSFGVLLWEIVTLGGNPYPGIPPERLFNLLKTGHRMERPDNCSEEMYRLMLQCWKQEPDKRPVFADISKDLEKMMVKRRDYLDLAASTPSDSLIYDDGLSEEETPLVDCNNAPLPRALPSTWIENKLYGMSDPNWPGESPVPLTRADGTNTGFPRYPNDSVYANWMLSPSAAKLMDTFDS
# T10 sequence (P10721 26-976 L576P): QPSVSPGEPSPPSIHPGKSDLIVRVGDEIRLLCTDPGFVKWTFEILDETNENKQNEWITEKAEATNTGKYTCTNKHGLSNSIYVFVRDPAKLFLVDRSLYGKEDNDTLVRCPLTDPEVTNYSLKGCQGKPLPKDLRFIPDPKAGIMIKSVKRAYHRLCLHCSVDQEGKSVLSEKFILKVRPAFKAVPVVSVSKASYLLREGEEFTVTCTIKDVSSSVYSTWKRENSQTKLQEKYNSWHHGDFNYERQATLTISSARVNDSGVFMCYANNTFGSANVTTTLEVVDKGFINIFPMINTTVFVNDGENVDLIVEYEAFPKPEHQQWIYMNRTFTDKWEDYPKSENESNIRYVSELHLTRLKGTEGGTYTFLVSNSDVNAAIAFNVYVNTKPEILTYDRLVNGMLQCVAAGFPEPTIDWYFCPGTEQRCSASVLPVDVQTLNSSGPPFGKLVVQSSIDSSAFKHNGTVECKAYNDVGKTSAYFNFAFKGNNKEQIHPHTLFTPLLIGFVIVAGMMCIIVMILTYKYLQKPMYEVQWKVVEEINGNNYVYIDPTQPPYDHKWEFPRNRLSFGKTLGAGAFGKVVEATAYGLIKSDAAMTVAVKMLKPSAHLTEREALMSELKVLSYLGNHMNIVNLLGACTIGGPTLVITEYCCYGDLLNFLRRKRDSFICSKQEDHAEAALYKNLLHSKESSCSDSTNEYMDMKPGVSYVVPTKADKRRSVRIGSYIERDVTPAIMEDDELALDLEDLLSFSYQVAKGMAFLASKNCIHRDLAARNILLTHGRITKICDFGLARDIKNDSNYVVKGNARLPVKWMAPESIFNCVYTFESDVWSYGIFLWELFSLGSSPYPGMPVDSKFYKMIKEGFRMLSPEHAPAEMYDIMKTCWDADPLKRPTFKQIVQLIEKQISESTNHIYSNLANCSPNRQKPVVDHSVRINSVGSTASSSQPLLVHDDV
# T12 sequence (P09619 33-1106): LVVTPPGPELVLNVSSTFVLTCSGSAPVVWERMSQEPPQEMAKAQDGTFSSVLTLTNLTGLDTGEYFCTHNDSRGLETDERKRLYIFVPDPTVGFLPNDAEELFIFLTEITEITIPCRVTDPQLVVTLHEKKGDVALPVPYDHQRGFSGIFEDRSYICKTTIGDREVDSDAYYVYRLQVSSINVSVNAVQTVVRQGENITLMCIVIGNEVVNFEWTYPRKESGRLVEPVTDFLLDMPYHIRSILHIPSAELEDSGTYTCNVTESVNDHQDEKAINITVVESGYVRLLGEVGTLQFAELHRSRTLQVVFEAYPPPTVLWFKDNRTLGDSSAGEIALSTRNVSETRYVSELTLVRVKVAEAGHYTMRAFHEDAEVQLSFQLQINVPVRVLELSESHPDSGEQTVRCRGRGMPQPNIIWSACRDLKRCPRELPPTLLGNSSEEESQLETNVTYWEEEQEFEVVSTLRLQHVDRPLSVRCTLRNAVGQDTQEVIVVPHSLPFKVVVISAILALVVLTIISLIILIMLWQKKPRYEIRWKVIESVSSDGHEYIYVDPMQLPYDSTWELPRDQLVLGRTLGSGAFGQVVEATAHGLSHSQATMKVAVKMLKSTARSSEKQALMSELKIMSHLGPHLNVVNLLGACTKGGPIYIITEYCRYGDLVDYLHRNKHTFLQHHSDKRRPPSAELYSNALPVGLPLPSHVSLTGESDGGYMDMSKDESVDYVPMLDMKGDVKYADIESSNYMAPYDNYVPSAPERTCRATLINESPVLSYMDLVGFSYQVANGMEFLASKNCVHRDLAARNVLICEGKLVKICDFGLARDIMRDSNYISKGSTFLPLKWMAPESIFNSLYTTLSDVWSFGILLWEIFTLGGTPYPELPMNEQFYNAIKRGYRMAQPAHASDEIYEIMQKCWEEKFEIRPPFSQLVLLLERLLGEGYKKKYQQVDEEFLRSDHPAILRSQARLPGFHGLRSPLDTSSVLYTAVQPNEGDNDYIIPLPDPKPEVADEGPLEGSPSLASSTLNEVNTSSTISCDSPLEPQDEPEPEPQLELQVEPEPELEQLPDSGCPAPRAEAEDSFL
# T11 sequence (P10721 26-976 V559D/V654A): as the sequence (P10721 26-976 L576P) above, with V534D, P551L, V629A counted along it
# T2 sequence (P07949 29-1114): as the sequence (P07949 29-1114 M918T) above, with T890M counted along it
# T5 sequence (P07949 29-1114 V804L): as the sequence (P07949 29-1114 M918T) above, with V776L, T890M counted along it
SMILES,"% Ctrl, FLT3 (kinases [1]; FLT3)","% Ctrl, FLT3-autoinhibited (kinases [1]; FLT3-autoinhibited)","% Ctrl, RET (kinases [2]; RET)","% Ctrl, EGFR(S752-I759del) (kinases [3]; EGFR(S752-I759del))","% Ctrl, EGFR(G719C) (kinases [4]; EGFR(G719C))","% Ctrl, RET(V804L) (kinases [5]; RET(V804L))","% Ctrl, ABL1(M351T)-phosphorylated (kinases [6]; ABL1(M351T)-phosphorylated)","% Ctrl, ABL1(H396P)-nonphosphorylated (kinases [7]; ABL1(H396P)-nonphosphorylated)","% Ctrl, ABL1(H396P)-phosphorylated (kinases [7]; ABL1(H396P)-phosphorylated)","% Ctrl, ABL1-nonphosphorylated (kinases [8]; ABL1-nonphosphorylated)","% Ctrl, ABL1-phosphorylated (kinases [8]; ABL1-phosphorylated)","% Ctrl, EGFR(T790M) (kinases [9]; EGFR(T790M))","% Ctrl, KIT(L576P) (kinases [10]; KIT(L576P))","% Ctrl, KIT(V559D, V654A) (kinases [11]; KIT(V559D, V654A))","% Ctrl, PDGFRB (kinases [12]; PDGFRB)","% Ctrl, RET(M918T) (kinases [13]; RET(M918T))","% Ctrl, ABL1(Y253F)-phosphorylated (kinases [14]; ABL1(Y253F)-phosphorylated)",also measured
"CN1CCOCCOc2cc3c(cc2Cl)NC(=O)/C3=C\c2[nH]ccc2C1=O [Ex. 143, [16a(17)Z]-19-chloro-2,5-dimethyl-6,7,9,10-tetrahydro-1H-12,14-(ethanediylidene)dipyrrolo[3,2-i:3′,4′-l][1,4,7]oxathiazacyclopentadecine-4,16(5H,15H)-dione]",,,,,,,,,,,,,,,,,,"% Ctrl, FLT3-autoinhibited (kinases [1]; target FLT3-autoinhibited): 62 % Ctrl; % Ctrl, FLT3 (kinases [1]; target FLT3): 15 % Ctrl; % Ctrl, RET (kinases [2]; target RET): 0.6 % Ctrl; % Ctrl, EGFR(S752-I759del) (kinases [3]; target EGFR(S752-I759del)): 86 % Ctrl; % Ctrl, EGFR(G719C) (kinases [4]; target EGFR(G719C)): 100 % Ctrl; % Ctrl, RET(V804L) (kinases [5]; target RET(V804L)): 3.5 % Ctrl; % Ctrl, ABL1(M351T)-phosphorylated (kinases [6]; target ABL1(M351T)-phosphorylated): 13 % Ctrl; % Ctrl, ABL1(H396P)-nonphosphorylated (kinases [7]; target ABL1(H396P)-nonphosphorylated): 1.6 % Ctrl; % Ctrl, ABL1(H396P)-phosphorylated (kinases [7]; target ABL1(H396P)-phosphorylated): 11 % Ctrl; % Ctrl, ABL1-nonphosphorylated (kinases [8]; target ABL1-nonphosphorylated): 6 % Ctrl; % Ctrl, ABL1-phosphorylated (kinases [8]; target ABL1-phosphorylated): 11 % Ctrl; % Ctrl, EGFR(T790M) (kinases [9]; target EGFR(T790M)): 100 % Ctrl; % Ctrl, KIT(L576P) (kinases [10]; target KIT(L576P)): 0 % Ctrl; % Ctrl, KIT(V559D, V654A) (kinases [11]; target KIT(V559D, V654A)): 33 % Ctrl; % Ctrl, PDGFRB (kinases [12]; target PDGFRB): 32 % Ctrl; % Ctrl, RET(M918T) (kinases [13]; target RET(M918T)): 0.7 % Ctrl; % Ctrl, ABL1(Y253F)-phosphorylated (kinases [14]; target ABL1(Y253F)-phosphorylated): 9.1 % Ctrl"
"Cc1cc2c([nH]1)/C=C1\C(=O)Nc3ccc(cc31)-c1c(C)n[nH]c1CNCCN(C)C2=O [Ex. 127, [3a(4)Z]-6,9,16-trimethyl-9,10,11,12,13,14-hexahydro-1,17-(ethanediylidene)pyrazolo[4,3-m]dipyrrolo[3,2-f:3′,4′-i][1,4]diazacyclopentadecine-3,8(2H,5H)-dione]",4.6 % Ctrl,9.9 % Ctrl,2 % Ctrl,57 % Ctrl,90 % Ctrl,0.55 % Ctrl,0.2 % Ctrl,0 % Ctrl,0 % Ctrl,0.05 % Ctrl,0 % Ctrl,9.2 % Ctrl,73 % Ctrl,89 % Ctrl,28 % Ctrl,2.1 % Ctrl,0 % Ctrl,
"Cc1cc2c([nH]1)/C=C1\C(=O)Nc3ccc(cc31)-c1ccnn1CCNCCNC2=O [Ex. 43, [19a(20)Z]-2-methyl-5,6,7,8,9,10-hexahydro-15,17-(ethanediylidene)pyrazolo[1,5-g]dipyrrolo[3,4-k:2′,3′-n][1,4,7]triazacyclohexadecine-4,19(1H,18H)-dione]",99 % Ctrl,77 % Ctrl,85 % Ctrl,91 % Ctrl,92 % Ctrl,100 % Ctrl,78 % Ctrl,64 % Ctrl,89 % Ctrl,53 % Ctrl,90 % Ctrl,100 % Ctrl,100 % Ctrl,100 % Ctrl,98 % Ctrl,95 % Ctrl,80 % Ctrl,

# Source: US20230257396A1, “MACROCYCLES AND THEIR USE” (BLOSSOMHILL THERAPEUTICS, INC., priority 2020, published 2023)
